In patent US20180369203A1, “METHODS OF TREATING CANCER BY ADMINISTERING A MEK INHIBITOR IN COMBINATION WITH A PROTEASOME INHIBITOR” (The Jackson Laboratory, priority 2015, published 2018):

System: Aβ1-42 peptides
Experiment: In vitro amyloid seeding of Aβ1-42 with lysates of treated A2058 cells (ThT binding, TEM)
Assay type: cell-based, human
Protocol: FIGS. 5A-Y show MEK and proteasome inhibition provoke protein aggregation and amyloidogenesis. (A-B) WM115 cells treated with 20 nM AZD6244, 100 nM Bortezomib, or both for 24 hr were stained with Lys48-specific ubiquitin antibodies. Arrowheads mark ubiquitin-positive aggregates. Scale bar: 10 μm. Amounts of aggregates per cell were quantitated using ImageJ (median, n≥100, ANOVA). (C-F) Following transfection with polyQ79 plasmids alone or with both polyQ79 and HSF1^S326D plasmids for one day, HEK293T cells were treated with inhibitors as described in (A-B). Cells were either analyzed for aggregate size or stained with 10 μM ThT. (G) Treated tumor cell lines were stained with 10 μM ThT. Geometric means were used to calculate fold changes in ThT fluorescence intensity and the log 2(FC) values were presented as a heat map. […] Following treatments, AOs were quantitated by ELISA using A11 antibodies (mean±SD, n=3, ANOVA). (I) Intrinsic AOs were detected in human tumor cell lines (mean±SD, n=3, ANOVA). […] Amyloids were quantitated by ELISA (mean±SD, n=3, Student's t-test). […] AF formation was monitored by ThT binding (mean±SD, n=3, ANOVA). […] Amyloids were quantitated (mean±SD, n=3, Student's t-test). […] Viable cells were quantitated by CellTiter® blue (mean±SD, n=6, Student's t-test). […] Viable cells were quantitated (mean±SD, n=6, ANOVA). […]
This figure is related to FIG. 5. […] (C) Quantitation of protein aggregate size. […]

With `CC(C)C[C@H](NC(=O)[C@H](Cc1ccccc1)NC(=O)c1cnccn1)B(O)O` [Bortezomib, bortezomib] the “amyloid seeding efficacy of cell lysates” value (20 μM Aβ1-42, ThT binding) was “augmented” and the “fibril morphology after seeding (transmission electron microscopy)” value (37° C., 2 days) was “mature fibrils”.
